Format in all cases: in vivo
One assay relates to Colletotricum lagenarium. In words: Cucumber Anthracnose (COLLLA), foliar spray, percent disease control.
Assay [1] deals with Pseudoperonospora cubensis. In words: Cucumber Downy Mildew (PSPECU), foliar spray, percent disease control. The following applies: read-out: PSPECU percent control.
The next assay relates to Cochliobolus sativus. In words: Spot Blotch of Wheat (COCHSA), foliar spray, percent disease control.
The test system of assay [2] is DROSME, AEDSAE, LAPHEG, or HELIVI. In words: Insecticidal activity, active if any of DROSME, AEDSAE, LAPHEG or HELIVI was controlled at 80% or more. The note with it: read-out: >80% mortality on any insect species @ 4000 ppm.
Where [3] appears, read: Bipolaris sorokiniana, foliar; read-out: COCHSA percent control.
The mark [4] stands for this setting: Bipolaris sorokiniana; foliar spray; read-out: COCHSA percent control.

Read-outs that look alike come from different tables or passages of the source. Where only a bound is given, the exact number is not on record here.

Regarding `c1cnc(Oc2ccc(CCNc3ncnc4nccnc34)cc2)nc1` [Compound 15], the values for the pest or weed control at 200 µg/mL (with Colletotricum lagenarium (foliar); in assay [1] (foliar); in the assay on Cochliobolus sativus (setting [3])) were 0 to 49%, 80 to 100% and 0 to 49%, respectively. Besides, the pest or weed control at 4000 ppm in assay [2] was over 80%.
`FC(F)(F)c1cccnc1Oc1ccc(CCNc2ncnc3nccnc23)cc1` [Compound 60]: the values for the pest or weed control at 200 µg/mL (in the assay with Colletotricum lagenarium (foliar); in assay [1] (foliar); in the assay with Cochliobolus sativus (setting [3])) were 50 to 79%, 80 to 100% and 0 to 49%, respectively. Moreover, in assay [2], the pest or weed control at 4000 ppm was over 80%.
Regarding `COc1cc(CCNc2ncnc3nccnc23)ccc1Oc1cc(C(F)(F)F)ccn1` [Compound 51], the results for the pest or weed control at 200 µg/mL (with Colletotricum lagenarium (foliar); in assay [1] (foliar); in the assay with Cochliobolus sativus (setting [3])) were 50 to 79%, 80 to 100% and 0 to 49%, respectively. Also, in assay [2], the pest or weed control at 4000 ppm is over 80%.
The corresponding values for `Fc1cc(C(F)(F)F)cnc1Oc1ccc(CCNc2ncnc3ncc(Cl)nc23)cc1` [Compound 118] are 0 to 49%, 0 to 49%, 0 to 49% and over 80%.
The matching figures for `FC(F)(F)COc1cccc(Oc2ccc(CCNc3ncnc4nccnc34)cc2)n1` [Compound 11, Pteridin-4-yl-(2-{4-[6-(2,2,2-trifluoroethoxy)-pyridin-2-yloxy]-phenyl}-ethyl)-amine]: 0 to 49%, 50 to 79%, 0 to 49% and over 80%.
On to `FC(F)(F)c1nc(Oc2ccc(CCNc3ncnc4nccnc34)cc2)sc1Cl` [Compound 128], for which the pest or weed control at 200 µg/mL in the assay with Colletotricum lagenarium (foliar) was in the range of 0 to 49%; in assay [1] (foliar) it was 80 to 100%; in the assay with Cochliobolus sativus (setting [3]), 0 to 49%. For the same compound, the pest or weed control at 4000 ppm in assay [2] is over 80%.
On to `Cc1cc(CCNc2ncnc3nccnc23)ccc1Oc1cc(C(C)(F)F)ccn1` [Compound 169], for which the pest or weed control at 200 µg/mL lay within 50 to 79% with Colletotricum lagenarium (foliar), 80 to 100% in assay [1] (foliar) and 0 to 49% in the assay on Cochliobolus sativus (setting [3]). In assay [2], the pest or weed control at 4000 ppm was over 80%.
`FC(F)(F)COc1ccnc(Oc2ccc(CCNc3ncnc4nccnc34)cc2)n1` [Compound 25]: the values for the pest or weed control at 200 µg/mL (in the assay with Colletotricum lagenarium (foliar); in assay [1] (foliar); in the assay with Cochliobolus sativus (setting [3])) were 0 to 49%, 80 to 100% and 0 to 49%, respectively. The pest or weed control at 4000 ppm in assay [2] was over 80%.
`COC(=O)c1cnc(Oc2ccc(CCNc3ncnc4nccnc34)cc2)cc1C(F)(F)F` [Compound 202]: the pest or weed control at 200 µg/mL lay within 0 to 49% in the assay with Colletotricum lagenarium (foliar spray), 80 to 100% in assay [1] (foliar spray) and 0 to 49% in the assay with Cochliobolus sativus (setting [4]). Besides, the pest or weed control at 4000 ppm in assay [2] was over 80%.
For the compound `Fc1c(F)c(C(F)(F)F)c(F)c(F)c1Oc1ccc(CCNc2ncnc3nccnc23)cc1` [Compound 112], the results for the pest or weed control at 200 µg/mL (in the assay on Colletotricum lagenarium (foliar); in assay [1] (foliar); in the assay on Cochliobolus sativus (setting [3])) were 0 to 49%, 80 to 100% and 0 to 49%, respectively. The pest or weed control at 4000 ppm in assay [2] is over 80%.
In the case of `Cc1c(CCNc2ncnc3nccnc23)ccc(Oc2cc(C(F)(F)F)ccn2)c1C` [Compound 145], the pest or weed control at 200 µg/mL is 50 to 79% in the assay on Colletotricum lagenarium (foliar), 80 to 100% in assay [1] (foliar) and 0 to 49% with Cochliobolus sativus (setting [3]). Also, the pest or weed control at 4000 ppm in assay [2] is over 80%.
Take `Cc1nc(NCCc2ccc(Oc3cc(C(F)(F)F)ccn3)cc2)c2nc(C)c(C)nc2n1` [Compound 215]: the pest or weed control at 200 µg/mL was 0 to 49% in the assay with Colletotricum lagenarium (foliar spray), 80 to 100% in assay [1] (foliar spray) and 0 to 49% in the assay with Cochliobolus sativus (setting [4]). Also, the pest or weed control at 4000 ppm in assay [2] was over 80%.
Turning to `c1ccc(-c2nnsc2Oc2ccc(CCNc3ncnc4nccnc34)cc2)cc1` [Compound 58], the pest or weed control at 200 µg/mL in the assay with Colletotricum lagenarium (foliar) is 0 to 49%; in assay [1] (foliar), 50 to 79%; with Cochliobolus sativus (setting [3]) it was 0 to 49%. Moreover, the pest or weed control at 4000 ppm in assay [2] is over 80%.
Take `CC(Nc1ncnc2nccnc12)c1ccc(Oc2nccc(C(F)(F)F)n2)cc1` (centres unmarked) [Compound 68]: the pest or weed control at 200 µg/mL fell in the range of 0 to 49% in the assay on Colletotricum lagenarium (foliar), 80 to 100% in assay [1] (foliar) and 0 to 49% in the assay with Cochliobolus sativus (setting [3]). Besides, the pest or weed control at 4000 ppm in assay [2] was over 80%.
For `COC(=O)c1cc(CCNc2ncnc3nccnc23)ccc1Oc1cc(C(F)(F)F)ccn1` [Compound 213, 5-[2-(Pteridin-4-ylamino)-ethyl]-2-(4-trifluoromethyl-pyridin-2-yloxy)-benzoic acid, methyl ester], the pest or weed control at 200 µg/mL with Colletotricum lagenarium (foliar spray) was in the range of 0 to 49%; in assay [1] (foliar spray) it was 80 to 100%; in the assay on Cochliobolus sativus (setting [4]), 0 to 49%. The pest or weed control at 4000 ppm in assay [2] was over 80%.
For `COc1cc(CCNc2ncnc3nccnc23)ccc1Oc1cc(C(C)(F)F)ccn1` [Compound 170, (2-{4-[4-(1,1-difluoroethyl)-pyridin-2-yloxy]-3-methoxyphenyl}-ethyl)-pteridin-4-yl-amine], the pest or weed control at 200 µg/mL in the assay on Colletotricum lagenarium (foliar) was in the range of 0 to 49%; in assay [1] (foliar), 80 to 100%; with Cochliobolus sativus (setting [3]), 0 to 49%. Moreover, in assay [2], the pest or weed control at 4000 ppm is over 80%.
As for `CCOC(=O)c1ccc(Oc2ccc(CCNc3ncnc4nccnc34)cc2)nc1` [Compound 137], the pest or weed control at 200 µg/mL (with Colletotricum lagenarium (foliar); in assay [1] (foliar); in the assay with Cochliobolus sativus (setting [3])) was 0 to 49% in each case. Also, the pest or weed control at 4000 ppm in assay [2] was over 80%.
Consider `FC(F)(F)c1ccnc(Oc2ccc(CCNc3ncnc4nccnc34)cc2Cl)c1` [Compound 187], for which the pest or weed control at 200 µg/mL fell in the range of 80 to 100% in the assay on Colletotricum lagenarium (foliar), 80 to 100% in assay [1] (foliar) and 0 to 49% with Cochliobolus sativus (setting [3]). The pest or weed control at 4000 ppm in assay [2] was over 80%.
As to `Cc1cc(CCNc2ncnc3nccnc23)ccc1Oc1cc(C(F)(F)F)ccn1` [Compound 109], the pest or weed control at 200 µg/mL in the assay with Colletotricum lagenarium (foliar) lay in the range of 50 to 79%; in assay [1] (foliar) it was 80 to 100%; with Cochliobolus sativus (setting [3]), 0 to 49%. Besides, the pest or weed control at 4000 ppm in assay [2] is over 80%.
Take `FC(F)(F)COc1ccc(CCNc2ncnc3nccnc23)cn1` [Compound 232]: the pest or weed control at 200 µg/mL lay within 50 to 79% with Colletotricum lagenarium (foliar spray), 80 to 100% in assay [1] (foliar spray) and 0 to 49% with Cochliobolus sativus (setting [4]). Besides, the pest or weed control at 4000 ppm in assay [2] was over 80%.
In the case of `FC(F)(F)c1cccc(-c2ccc(CCNc3ncnc4nccnc34)cc2)c1` [Compound 122], the pest or weed control at 200 µg/mL in the assay with Colletotricum lagenarium (foliar) lay within 0 to 49%; in assay [1] (foliar), 50 to 79%; in the assay with Cochliobolus sativus (Bipolaris sorokiniana, foliar, read-out: COCHSA percent control), 0 to 49%. Also, in assay [2], the pest or weed control at 4000 ppm was over 80%.
Consider `CC1=CSc2cc(CCNc3ncnc4nccnc34)ccc2O1` [Compound 231], for which the pest or weed control at 200 µg/mL (in the assay on Colletotricum lagenarium (foliar spray); in assay [1] (foliar spray); with Cochliobolus sativus (setting [4])) was 0 to 49% throughout. In addition, the pest or weed control at 4000 ppm in assay [2] is over 80%.
With `CCc1ncnc(Oc2ccc(CCNc3ncnc4nccnc34)cc2)c1Cl` [Compound 146], the pest or weed control at 200 µg/mL in the assay with Colletotricum lagenarium (foliar) is 50 to 79%; in assay [1] (foliar) it was 80 to 100%; in the assay on Cochliobolus sativus (setting [3]), 0 to 49%. Besides, the pest or weed control at 4000 ppm in assay [2] is over 80%.
As to `FC(F)(F)c1ccc(Oc2ccc(OCCNc3ncnc4nccnc34)cc2)nc1` [Compound 84], the pest or weed control at 200 µg/mL in the assay with Colletotricum lagenarium (foliar) is 80 to 100%; in assay [1] (foliar), 80 to 100%; in the assay on Cochliobolus sativus (setting [3]) it was 0 to 49%. The pest or weed control at 4000 ppm in assay [2] is over 80%.
`COc1cc(CCNc2ncnc3nccnc23)ccc1Oc1ccc(C(F)(F)F)cn1` [Compound 49]: the figures for the pest or weed control at 200 µg/mL (in the assay with Colletotricum lagenarium (foliar); in assay [1] (foliar); in the assay on Cochliobolus sativus (setting [3])) were 50 to 79%, 80 to 100% and 50 to 79%, respectively. Besides, the pest or weed control at 4000 ppm in assay [2] is over 80%.
Take `CC(Sc1ncnc2nccnc12)c1cccc(C(F)(F)F)c1` (centres unmarked) [Compound 79]: the pest or weed control at 200 µg/mL (in the assay with Colletotricum lagenarium (foliar); in assay [1] (foliar); in the assay with Cochliobolus sativus (setting [3])) was 0 to 49% each time. The pest or weed control at 4000 ppm in assay [2] is over 80%.
As for `Cc1nc(NCCc2ccc(Oc3ncc(C(F)(F)F)cc3F)cc2)c2nc(C)c(C)nc2n1` [Compound 214], the pest or weed control at 200 µg/mL (in the assay on Colletotricum lagenarium (foliar spray); in assay [1] (foliar spray); in the assay on Cochliobolus sativus (setting [4])) was 0 to 49% in each case. In addition, the pest or weed control at 4000 ppm in assay [2] was over 80%.
Consider `FC(F)(F)c1ccc(Oc2ccc(CCNc3ncnc4nccnc34)cc2)nc1` [Compound 5], for which the pest or weed control at 200 µg/mL was 80 to 100% with Colletotricum lagenarium (foliar), 80 to 100% in assay [1] (foliar) and 0 to 49% with Cochliobolus sativus (setting [3]). For the same compound, the pest or weed control at 4000 ppm in assay [2] is over 80%.
On to `CC(Nc1ncnc2nccnc12)c1ccc(Oc2ccc(C(F)(F)F)cn2)cc1` (centres unmarked) [Compound 67], for which the results for the pest or weed control at 200 µg/mL (with Colletotricum lagenarium (foliar); in assay [1] (foliar); with Cochliobolus sativus (setting [3])) were 0 to 49%, 80 to 100% and 0 to 49%, respectively. In assay [2], the pest or weed control at 4000 ppm was over 80%.
Take `COc1ccnc(Oc2ccc(CCNc3ncnc4nccnc34)cc2)c1` [Compound 95]: the values for the pest or weed control at 200 µg/mL (in the assay on Colletotricum lagenarium (foliar); in assay [1] (foliar); in the assay on Cochliobolus sativus (setting [3])) were 80 to 100%, 80 to 100% and 0 to 49%, respectively. For the same compound, the pest or weed control at 4000 ppm in assay [2] was over 80%.
As to `Cc1c(CCNc2ncnc3nccnc23)ccc(Oc2ncc(C(F)(F)F)cc2F)c1C` [Compound 148], the pest or weed control at 200 µg/mL in the assay on Colletotricum lagenarium (foliar) lay in the range of 0 to 49%; in assay [1] (foliar), 80 to 100%; with Cochliobolus sativus (setting [3]), 0 to 49%. Further, the pest or weed control at 4000 ppm in assay [2] was over 80%.
Regarding `Cc1cc(CCNc2ncnc3nccnc23)ccc1Oc1cc(C#N)ccn1` [Compound 155], the pest or weed control at 200 µg/mL fell in the range of 50 to 79% in the assay with Colletotricum lagenarium (foliar), 80 to 100% in assay [1] (foliar) and 0 to 49% in the assay with Cochliobolus sativus (setting [3]). Also, the pest or weed control at 4000 ppm in assay [2] was over 80%.

The values are drawn from US8895568B2, “Compositions comprising substituted pteridines as agrochemicals” (Dow AgroSciences LLC, priority 2009, dated 2014).
